Assay results published in ChEMBL document CHEMBL4613277, “Improving the Potency of N-Aryl-2,5-dimethylpyrroles against Multidrug-Resistant and Intracellular Mycobacteria” (ACS Med Chem Lett, 2020).
Values after ≈ are worked out from the molar mass of the structure shown. Active and inactive are the calls of the source. The calls are words filed in the database; no cut-off is given here.

Assays:
[1] = test system: Mycobacterium tuberculosis; test: Antimycobacterial activity against Mycobacterium tuberculosis H37Rv assessed as reduction in bacterial growth incubated for 7 days by resazurin based assay; assay type: functional; settings: 168 h
[2] = Selectivity index, ratio of GI50 for mouse Macrophage cells to MIC for Mycobacterium tuberculosis H37Rv; assay type: toxicity
[3] = Cytotoxicity against mouse macrophage cells assessed as growth inhibition incubated for 48 hrs by resazurin based assay; assay type: cell-based
[4] = test system: Mycobacterium tuberculosis; test: Antimycobacterial activity against Mycobacterium tuberculosis H37Rv infected in mouse J774.1 cells assessed as reduction in bacterial colony at 1 to 10 times MIC incubated for 72 hrs by colony counting method; assay type: functional, organism-based
[5] = test system: Mycobacterium tuberculosis; test: Bacteriostatic activity against Mycobacterium tuberculosis H37Rv assessed as reduction in bacterial growth at 0.07 ug/ml incubated for 3 to 4 weeks by time kill assay; assay type: functional, organism-based
[6] = test system: Mycobacterium tuberculosis; test: Bactericidal activity against Mycobacterium tuberculosis H37Rv assessed as reduction in bacterial growth at 0.35 ug/ml incubated for 3 to 4 weeks by time kill assay; assay type: functional, organism-based
[7] = Acute toxicity in Galleria mellonella wax moth larve assessed as adverse effect at 12 mg/kg observed for 5 days; assay type: organism-based; settings: in vivo, 120 h
Mycolicibacterium aurum [8] = test: Antimycobacterial activity against Mycobacterium aurum assessed as reduction in bacterial growth incubated for 48 hrs by HT-SPOTi assay; assay type: functional
[9] = Acute toxicity in Galleria mellonella wax moth larve assessed as mortality by measuring melanization at 12 mg/kg observed for 5 days; assay type: organism-based; settings: in vivo, 120 h
[10] = test system: Mycobacterium tuberculosis; test: Bacteriostatic activity against Mycobacterium tuberculosis H37Rv assessed as reduction in bacterial growth at 0.32 ug/ml incubated for 3 to 4 weeks by time kill assay; assay type: functional, organism-based
Mycolicibacterium aurum [11] = test: Antimycobacterial activity against Mycobacterium aurum infected in mouse RAW264.7 cells assessed as reduction in bacterial growth incubated for 48 hrs by HT-SPOTi assay; assay type: functional

With `Cc1nn(-c2ccccc2)c(C)c1CNC1CCCCC1` the MIC [1] was > 25 µg/mL.

In the case of `Clc1ccc(-n2cc(CNC3CCCCC3)nn2)cc1`, the MIC [1] is reported as > 25 µg/mL.

In the case of `Cc1nn(-c2ccc(Cl)cc2)c(C)c1CNCc1ccccc1`, the MIC [1] is reported as > 25 µg/mL.

Molecule `Cc1cc(CNC2CCCCC2)c(C)n1-c1ccc(C(C)C)cc1` has a selectivity ratio [2] of 23 to 48, a GI50 at 48 h [3] of 5.8 µg/mL (≈ 17.9 µM) and an MIC [1] of 0.12 to 0.25 µg/mL (≈ 0.37 to 0.77 µM).

In the case of `CO[C@H]1/C=C/O[C@@]2(C)Oc3c(C)c(O)c4c(O)c(c(/C=N/N5CCN(C)CC5)c(O)c4c3C2=O)NC(=O)/C(C)=C\C=C\[C@H](C)[C@H](O)[C@@H](C)[C@@H](O)[C@@H](C)[C@H](OC(C)=O)[C@@H]1C` [RIFAMPIN], the MIC [1] is reported as > 0.06 µg/mL.

With `Clc1ccc(-n2cc(CNCc3ccccc3)nn2)cc1` the MIC [1] was > 25 µg/mL.

For `NNC(=O)c1ccncc1` [ISONIAZID], the inhibition [4] was “Active” and the MIC [1] was 0.24 µg/mL (≈ 1.75 µM).

For `Clc1ccc2nc(CNC3CCCCC3)cn2c1`, the MIC [1] was > 25 µg/mL.

In the case of `COc1c(N2C[C@@H]3CCCN[C@@H]3C2)c(F)cc2c(=O)c(C(=O)O)cn(C3CC3)c12`, the Activity [5] is reported as “inactive”, the inhibition [4] is reported as “Active” and the Activity [6] is reported as “Active”.

With `Cc1cc(CNCC2CCCCC2)c(C)n1-c1ccc(Cl)cc1` the selectivity ratio [2] was 39 to 195, the GI50 at 48 h [3] was 11.7 µg/mL (≈ 35.4 µM) and the Activity [7] was “Non-Toxic”. For the same molecule, the inhibition [4] was “Active”, the MIC (Mycolicibacterium aurum [8]) was 3.9 µg/mL (≈ 11.8 µM) and the Activity [9] was “Non-Toxic”. For the same molecule, the Activity [10] was “Active”, the MIC (Mycolicibacterium aurum [11]) was 1.95 µg/mL (≈ 5.89 µM) and the MIC [1] was 0.06 to 0.3 µg/mL (≈ 0.181 to 0.907 µM).

`Cc1cc(CN[C@H]2C[C@@H]3CC[C@H]2C3)c(C)n1-c1ccc(Cl)cc1` gave a selectivity ratio [2] of 47 to 94, a GI50 at 48 h [3] of 23.4 µg/mL (≈ 71.1 µM) and an MIC [1] of 0.25 to 0.5 µg/mL (≈ 0.76 to 1.52 µM).

For `Clc1ccc2nc(CNCc3ccccc3)cn2c1`, the MIC [1] was > 25 µg/mL.

With `COc1ccc(-n2c(C)cc(CNC3CCCCC3)c2C)cc1` the selectivity ratio [2] was 16 to 32, the GI50 at 48 h [3] was 3.9 µg/mL (≈ 12.5 µM) and the MIC [1] was 0.12 to 0.25 µg/mL (≈ 0.384 to 0.8 µM).

In the case of `Cc1nn(-c2ccc(Cl)cc2)c(C)c1CNC1CCCCC1`, the MIC [1] is reported as > 25 µg/mL.
